Usually IC50 stands for the point on the concentration scale where inhibition reaches its midpoint. Lower therefore signals higher potency.

We go through 20 molecules from US9296723B2, “NAMPT inhibitors” (AbbVie Inc., priority 2012, dated 2016).

Experiment [1] has as its target T1, NAMPT (Homo sapiens, UniProt P43490). Kind of experiment: Time-Resolved Fluorescence Resonance Energy Transfer (TR-FRET) Binding Assay of NAMPT. As to conditions: 6.8 nM NAMPT, 200 nM probe, equilibrated 3 hours, no substrates. The method, boiled down:
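Compound was mixed with enzyme, probe and antibody and equilibrated 3 h at room temperature. TR-FRET read at Ex 337 nm, Em 520/495 nm. Ratios were normalized to controls and fitted to a four-parameter logistic equation for IC50.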
A general note: TR-FRET usually uses a lanthanide donor and a delayed reading to cut background.

Experiment [2] addresses T1, NAMPT. Kind of experiment: TR-FRET Binding Assay of NAMPT with PRPP. The settings on record: 2 nM NAMPT, 2 nM probe, 200 µM PRPP and 2.5 mM ATP, equilibrated 16 hours. The method, boiled down: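 TR-FRET probe displacement with 2 nM NAMPT, 2 nM probe and 1 nM Tb-anti-His antibody in the presence of 200 µM PRPP and 2.5 mM ATP, 2% DMSO (all final). Equilibrated 16 hours before reading to permit possible enzymatic modification of compounds.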

The subject of experiment [3] is PC3 cells. Kind of experiment: NAMPT Cell Proliferation Assay (Cell Titer Glo). The settings on record: Homo sapiens, PC-3, 120 h, incubated 5 days, cell viability. In kind it is cell-based. The method, boiled down:
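PC3 cells (500/well, RPMI with 10% heat-inactivated FBS) were exposed to 10-fold compound dilutions from […] for 5 days at 37 °C, 5% CO2. Viability was read with Cell Titer Glo; IC50 from sigmoidal fit of percent inhibition.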

Structures are written as SMILES.

T1 sequence (P43490 whole entry): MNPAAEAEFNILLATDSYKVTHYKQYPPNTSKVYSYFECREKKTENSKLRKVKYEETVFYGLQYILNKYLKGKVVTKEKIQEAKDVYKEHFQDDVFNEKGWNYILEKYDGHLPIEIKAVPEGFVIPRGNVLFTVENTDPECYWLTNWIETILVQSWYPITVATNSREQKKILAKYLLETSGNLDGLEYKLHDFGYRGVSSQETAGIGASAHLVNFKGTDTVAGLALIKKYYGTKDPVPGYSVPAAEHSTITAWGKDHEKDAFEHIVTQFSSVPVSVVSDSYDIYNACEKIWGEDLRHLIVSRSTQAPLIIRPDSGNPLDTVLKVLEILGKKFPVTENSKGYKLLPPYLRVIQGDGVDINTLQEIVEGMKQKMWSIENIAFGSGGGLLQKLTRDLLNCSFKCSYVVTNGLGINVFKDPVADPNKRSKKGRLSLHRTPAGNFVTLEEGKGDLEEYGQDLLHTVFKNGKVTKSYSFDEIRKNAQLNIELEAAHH

As for `O=C(Nc1ccc(C2CCN(C(=O)c3ccoc3)CC2)cc1)N1CC(c2cccnc2)C1` [Example 182, N-{4-[1-(furan-3-ylcarbonyl)piperidin-4-yl]phenyl}-3-(pyridin-3-yl)azetidine-1-carboxamide], the results for the half-inhibitory concentration (IC50) in experiment [1], in experiment [2] and in experiment [3] were 3.68 nM, 0.219 nM and 6.95 nM, respectively.
For `CC(=O)N1CCC(c2ccc(NC(=O)N3CC(c4cccnc4)C3)cc2)CC1` [Example 183, N-[4-(1-acetylpiperidin-4-yl)phenyl]-3-(pyridin-3-yl)azetidine-1-carboxamide], in that order: 22 nM, 0.38 nM and 63.3 nM.
The corresponding values for `COCC(=O)N1CCC(c2ccc(NC(=O)N3CC(c4cccnc4)C3)cc2)CC1` [Example 184, N-{4-[1-(methoxyacetyl)piperidin-4-yl]phenyl}-3-(pyridin-3-yl)azetidine-1-carboxamide] are 18.5 nM, 0.305 nM and 61.2 nM.
For the molecule `O=C(Nc1ccc(C2CCN(C(=O)c3ccsc3)CC2)cc1)N1CC(c2cccnc2)C1` [Example 185, 3-(pyridin-3-yl)-N-{4-[1-(thiophen-3-ylcarbonyl)piperidin-4-yl]phenyl}azetidine-1-carboxamide], the half-inhibitory concentration (IC50) in experiment [1] was 3.23 nM; in experiment [2] it was 0.228 nM; in experiment [3], 9.18 nM.
The corresponding values for `Cc1ccsc1C(=O)N1CCC(c2ccc(NC(=O)N3CC(c4cccnc4)C3)cc2)CC1` [Example 186, N-(4-{1-[(3-methylthiophen-2-yl)carbonyl]piperidin-4-yl}phenyl)-3-(pyridin-3-yl)azetidine-1-carboxamide] are 2.93 nM, 0.345 nM and 3.45 nM.
For `O=C(CN1CCOCC1)N1CCC(c2ccc(NC(=O)N3CC(c4cccnc4)C3)cc2)CC1` [Example 187, N-{4-[1-(morpholin-4-ylacetyl)piperidin-4-yl]phenyl}-3-(pyridin-3-yl)azetidine-1-carboxamide], in that order: 39.3 nM, 0.292 nM and 86.3 nM.
The corresponding values for `O=C(Nc1ccc(C2CCN(C(=O)c3cccs3)CC2)cc1)N1CC(c2cccnc2)C1` [Example 188, 3-(pyridin-3-yl)-N-{4-[1-(thiophen-2-ylcarbonyl)piperidin-4-yl]phenyl}azetidine-1-carboxamide] are 2.1 nM, 0.188 nM and 2.25 nM.
Take `Cc1ccc(C(=O)N2CCC(c3ccc(NC(=O)N4CC(c5cccnc5)C4)cc3)CC2)s1` [Example 189, N-(4-{1-[(5-methylthiophen-2-yl)carbonyl]piperidin-4-yl}phenyl)-3-(pyridin-3-yl)azetidine-1-carboxamide]: the concentration for half-maximal inhibition (IC50) amounted to 22.6 nM in experiment [1], 0.21 nM in experiment [2] and 21.7 nM in experiment [3].
With `O=C(Nc1ccc(C2CCN(C(=O)c3ccco3)CC2)cc1)N1CC(c2cccnc2)C1` [Example 190, N-{4-[1-(furan-2-ylcarbonyl)piperidin-4-yl]phenyl}-3-(pyridin-3-yl)azetidine-1-carboxamide], the IC50 in experiment [1] stood at 2 nM; in experiment [2], 0.282 nM; in experiment [3], 5.83 nM.
For `Cn1cccc1C(=O)N1CCC(c2ccc(NC(=O)N3CC(c4cccnc4)C3)cc2)CC1` [Example 191, N-(4-{1-[(1-methyl-1H-pyrrol-2-yl)carbonyl]piperidin-4-yl}phenyl)-3-(pyridin-3-yl)azetidine-1-carboxamide], in that order: 4.27 nM, 0.291 nM and 7.46 nM.
For `CCC(=O)N1CCC(c2ccc(NC(=O)N3CC(c4cccnc4)C3)cc2)CC1` [Example 192, N-[4-(1-propanoylpiperidin-4-yl)phenyl]-3-(pyridin-3-yl)azetidine-1-carboxamide], in that order: 23 nM, 0.255 nM and 63.2 nM.
The corresponding values for `CC1(C(=O)N2CCC(c3ccc(NC(=O)N4CC(c5cccnc5)C4)cc3)CC2)CC1` [Example 193, N-(4-{1-[(1-methylcyclopropyl)carbonyl]piperidin-4-yl}phenyl)-3-(pyridin-3-yl)azetidine-1-carboxamide] are 14.4 nM, 0.243 nM and 13.7 nM.
Regarding `O=C(CN1CCCC1)N1CCC(c2ccc(NC(=O)N3CC(c4cccnc4)C3)cc2)CC1` [Example 194, 3-(pyridin-3-yl)-N-{4-[1-(pyrrolidin-1-ylacetyl)piperidin-4-yl]phenyl}azetidine-1-carboxamide], the IC50 in experiment [1] turned out to be 248 nM; in experiment [2], 0.592 nM; in experiment [3], 690 nM.
As for `O=C(Nc1ccc(C2CCN(C(=O)c3nccs3)CC2)cc1)N1CC(c2cccnc2)C1` [Example 195, 3-(pyridin-3-yl)-N-{4-[1-(1,3-thiazol-2-ylcarbonyl)piperidin-4-yl]phenyl}azetidine-1-carboxamide], the results for the IC50 in experiment [1], in experiment [2] and in experiment [3] were 4.19 nM, 0.281 nM and 8.66 nM, respectively.
The corresponding values for `O=C(CC1CCCC1)N1CCC(c2ccc(NC(=O)N3CC(c4cccnc4)C3)cc2)CC1` [Example 196, N-{4-[1-(cyclopentylacetyl)piperidin-4-yl]phenyl}-3-(pyridin-3-yl)azetidine-1-carboxamide] are 15 nM, 0.281 nM and 64.6 nM.
As to `CC(C)C(C)C(=O)N1CCC(c2ccc(NC(=O)N3CC(c4cccnc4)C3)cc2)CC1` (stereo not drawn) [Example 197, N-{4-[1-(2,3-dimethylbutanoyl)piperidin-4-yl]phenyl}-3-(pyridin-3-yl)azetidine-1-carboxamide], the half-maximal inhibitory concentration (IC50) is 17.8 nM in experiment [1], 0.505 nM in experiment [2] and 22.7 nM in experiment [3].
For `CCCCC(=O)N1CC(c2ccc(NC(=O)N3CC(c4cccnc4)C3)cc2)C1` [Example 198, N-[4-(1-pentanoylazetidin-3-yl)phenyl]-3-(pyridin-3-yl)azetidine-1-carboxamide], in that order: 64.2 nM, 0.341 nM and 47.6 nM.
For `O=C(CC1C[C@@H]2CC[C@H]1C2)N1CC(c2ccc(NC(=O)N3CC(c4cccnc4)C3)cc2)C1` (stereo partly drawn) [Example 200, N-(4-{1-[(1S,4R)-bicyclo[2.2.1]hept-2-ylacetyl]azetidin-3-yl}phenyl)-3-(pyridin-3-yl)azetidine-1-carboxamide], in that order: 36.4 nM, 0.382 nM and 17 nM.
The corresponding values for `CCC(C)CC(=O)N1CC(c2ccc(NC(=O)N3CC(c4cccnc4)C3)cc2)C1` (stereo not drawn) [Example 202, N-{4-[1-(3-methylpentanoyl)azetidin-3-yl]phenyl}-3-(pyridin-3-yl)azetidine-1-carboxamide] are 51.1 nM, 0.327 nM and 65.5 nM.
In the case of `CCC(C)(C)C(=O)N1CC(c2ccc(NC(=O)N3CC(c4cccnc4)C3)cc2)C1` [Example 204, N-{4-[1-(2,2-dimethylbutanoyl)azetidin-3-yl]phenyl}-3-(pyridin-3-yl)azetidine-1-carboxamide], the IC50 in experiment [1] amounted to 48.6 nM; in experiment [2], 0.349 nM; in experiment [3] it was 60.4 nM.
